Laboratory results published in patent publication US9670261B2 (Sanofi, priority 2012, dated 2017).
Values after ≈ are worked out from the molar mass of the structure shown. *1 amine or outer side, *2 acyl side, *3 side chain or, on linkers, in order; H or OH if unused. Where a SMILES comes first, the peptide text is derived from it. Side-chain parts run from the residue outwards. [ ]: non-standard residue; d: D form. The star is where a group is joined. γGlu = O=C(O)[C@H](CCC(=O)[*:2])N[*:1]; Palmitoyl = CCCCCCCCCCCCCCCC(=O)*; Aib = CC(C)(N)C(=O)O

Tests used:
human GLP-1 receptor = target: T1, human GLP-1 receptor (Homo sapiens, UniProt P43220); assay: cAMP response (HTRF) of HEK-293 cells stably expressing human GLP-1 receptor; assay type: cell-based; conditions: Table 7; cAMP formation; read-out: EC50 hGLP-1 R
T1 construct: expressed in transfected cells
Experimental: cAMP content of cells was determined using a kit from Cisbio Corp. (cat. no. 62AM4PEC) based on HTRF (Homogenous Time Resolved Fluorescence). For preparation, cells were split into T175 culture flasks and grown overnight to near confluency in medium (DMEM/10% FBS). Medium was then removed and cells washed with PBS lacking calcium and magnesium, followed by proteinase treatment with accutase (Sigma-Aldrich cat. no. A6964). Detached cells were washed and resuspended in assay buffer (1×HBSS; 20 mM HEPES, 0.1% BSA, 2 mM IBMX) and cellular density determined. They were then diluted to 400000 cells/ml and 25 μl-aliquots dispensed into the wells of 96-well plates. For measurement, 25 μl of test compound in assay buffer was added to the wells, followed by incubation for 30 minutes at room temperature.

[1] = Pharmacokinetic testing in mice, s.c.; conditions: mouse, plasma, sc, 1 mg/kg
Experimental: Mice were dosed 1 mg/kg subcutaneously (s.c.). The mice were sacrified and blood samples were collected after 0.25, 0.5, 1, 2, 4, 8, 16 and 24 hours post application. Plasma samples were analyzed after protein precipitation via liquid chromatography mass spectrometry (LC/MS). PK parameters and half-life were calculated using WinonLin Version 5.2.1 (non-compartment model).

[2] = Solubility testing in buffer (HPLC-UV); conditions: buffer
[3] = Chemical stability in solution, 7 days at 25° C. (% remaining peptide); conditions: % remaining peptide after 7 days at 25° C.
Experimental: After that time course, the sample was centrifuged for 20 min at 4000 rpm and the supernatant was analysed with HPLC-UV. For determination of the amount of the remaining peptide, the peak areas of the target compound at t0 and t7 were compared, resulting in “% remaining peptide”, following the equation % remaining peptide=[(peak area peptide t7)×100]/peak area peptide t0.
The chemical stability is expressed as “% remaining peptide”.

T1 sequence (P43220 24-463): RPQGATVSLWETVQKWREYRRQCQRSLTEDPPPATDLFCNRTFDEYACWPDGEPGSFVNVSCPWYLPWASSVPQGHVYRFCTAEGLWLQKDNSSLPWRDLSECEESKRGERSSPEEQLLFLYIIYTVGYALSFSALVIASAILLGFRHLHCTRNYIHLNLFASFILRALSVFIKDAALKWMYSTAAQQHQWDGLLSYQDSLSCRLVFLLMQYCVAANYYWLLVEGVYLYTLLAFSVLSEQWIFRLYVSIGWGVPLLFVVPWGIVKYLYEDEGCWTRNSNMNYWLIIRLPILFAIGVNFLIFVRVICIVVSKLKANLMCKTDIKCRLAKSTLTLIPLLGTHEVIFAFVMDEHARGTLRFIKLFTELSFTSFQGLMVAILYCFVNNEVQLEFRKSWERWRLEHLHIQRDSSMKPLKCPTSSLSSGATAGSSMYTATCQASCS

`CCCCCCCCCCCCCCCC(=O)N[C@@H](CCC(=O)NCCCC[C@H](NC(=O)[C@H](CCC(N)=O)NC(=O)[C@@H](NC(=O)[C@H](CO)NC(=O)[C@H](CC(C)C)NC(=O)[C@H](CC(=O)O)NC(=O)[C@H](CO)NC(=O)[C@@H](NC(=O)[C@H](Cc1ccccc1)NC(=O)[C@@H](NC(=O)CNC(=O)[C@H](CCC(N)=O)NC(=O)C(C)(C)NC(=O)[C@@H](N)Cc1ccc(O)cc1)[C@@H](C)O)[C@@H](C)O)[C@@H](C)CC)C(=O)N[C@@H](CCC(=O)O)C(=O)N[C@@H](CCCCN)C(=O)N[C@@H](CCCNC(=N)N)C(=O)N[C@@H](C)C(=O)N[C@@H](C)C(=O)NC(C)(C)C(=O)N[C@@H](CCC(=O)O)C(=O)N[C@@H](Cc1ccccc1)C(=O)N[C@H](C(=O)N[C@@H](CCC(=O)O)C(=O)N[C@@H](Cc1c[nH]c2ccccc12)C(=O)N[C@@H](CC(C)C)C(=O)N[C@@H](CCCCN)C(=O)N[C@@H](CC(N)=O)C(=O)N[C@H](C(=O)NCC(=O)N1CCC[C@H]1C(=O)N[C@@H](CO)C(=O)N[C@@H](CO)C(=O)NCC(=O)N[C@@H](C)C(=O)N1CCC[C@H]1C(=O)N1CCC[C@H]1C(=O)N1CCC[C@H]1C(=O)N[C@@H](CO)C(N)=O)[C@@H](C)O)[C@@H](C)CC)C(=O)O` [SEQ ID NO: 8, Y-Aib-Q-G-T-F-T-S-D-L-S-I-Q-K(γE-x53)-E-K-R-A-A-Aib-E-F-I-E-W-L-K-N-T-G-P-S-S-G-A-P-P-P-S-NH2] (H-Y[Aib]QGTFTSDLSIQK([γGlu-Palmitoyl])EKRAA[Aib]EFIEWLKNTGPSSGAPPPS-NH2) gave an EC50 (human GLP-1 receptor) of 5.3 pM, a Cmax [1] of 3740 ng/mL and a half-life [1] of 3.4 h. The solubility at 2 h ([2]; pH 4.5) was > 1000 µg/mL, the solubility at 2 h ([2]; pH 7.4) was 972 µg/mL (≈ 212 µM) and the “Stability (pH 4.5)” value [3] was 98.0%. The “Stability (pH 7.4)” value [3] was 98.0%.
In the case of `CCCCCCCCCCCCCCCC(=O)N[C@@H](CCC(=O)NCCCC[C@H](NC(=O)[C@H](CCC(N)=O)NC(=O)[C@@H](NC(=O)[C@H](CO)NC(=O)[C@H](CC(C)C)NC(=O)[C@H](CC(=O)O)NC(=O)[C@H](CO)NC(=O)[C@@H](NC(=O)[C@H](Cc1ccccc1)NC(=O)[C@@H](NC(=O)CNC(=O)[C@H](CCC(=O)O)NC(=O)C(C)(C)NC(=O)[C@@H](N)Cc1ccc(O)cc1)[C@@H](C)O)[C@@H](C)O)[C@@H](C)CC)C(=O)N[C@@H](CCC(=O)O)C(=O)N[C@@H](CO)C(=O)N[C@@H](CCCNC(=N)N)C(=O)N[C@@H](C)C(=O)N[C@@H](C)C(=O)NC(C)(C)C(=O)N[C@@H](CCC(=O)O)C(=O)N[C@@H](Cc1ccccc1)C(=O)N[C@H](C(=O)N[C@@H](CCC(=O)O)C(=O)N[C@@H](Cc1c[nH]c2ccccc12)C(=O)N[C@@H](CC(C)C)C(=O)N[C@@H](CCCCN)C(=O)N[C@@H](C)C(=O)NCC(=O)NCC(=O)N1CCC[C@H]1C(=O)N[C@@H](CO)C(=O)N[C@@H](CO)C(=O)NCC(=O)N[C@@H](C)C(=O)N1CCC[C@H]1C(=O)N1CCC[C@H]1C(=O)N1CCC[C@H]1C(=O)N[C@@H](CO)C(N)=O)[C@@H](C)CC)C(=O)O` [SEQ ID NO: 35, Y-Aib-E-G-T-F-T-S-D-L-S-I-Q-K(γE-x53)-E-S-R-A-A-Aib-E-F-I-E-W-L-K-A-G-G-P-S-S-G-A-P-P-P-S-NH2] (H-Y[Aib]EGTFTSDLSIQK([γGlu-Palmitoyl])ESRAA[Aib]EFIEWLKAGGPSSGAPPPS-NH2), the EC50 (human GLP-1 receptor) is reported as 6.9 pM, the solubility at 2 h ([2]; pH 4.5) is reported as 424 µg/mL (≈ 95.4 µM) and the solubility at 2 h ([2]; pH 7.4) is reported as > 1000 µg/mL. For the same compound, the “Stability (pH 4.5)” value [3] was 100.0% and the “Stability (pH 7.4)” value [3] was 98.0%.
